From paper PMC3456924, “Single-dose pharmacokinetic and toxicity analysis of pyrrole–imidazole polyamides in mice” (Cancer Chemotherapy and Pharmacology, 2012)
Entries after “also recorded” stand apart in the source; their conditions may differ. Like-named read-outs stand apart in the source and are kept apart here.

What was measured:
pH stability analysis = assay type: physicochemical; settings: buffers at 37 °C for 24 h; analytical HPLC
Description: The pH stability of Py-Im polyamides was analyzed as previously described. In summary, 15 μL of a 10 μM solution of polyamide 1 or 2 in DMSO was incubated with 85 μL of buffer with pH of 2.5, 4, 7, or 10 (Fluka) at 37 °C for 24 h. After incubation, the sample was mixed with an equal volume of N,N-dimethylformamide and sonicated briefly. Next, 20 μL of the sample solution was mixed with 180 μL of aqueous buffer containing 100 mM NH4OAc and 25 μM methyl 4-nitro-1H-pyrrole-2-carboxylate as an internal standard. Analytical HPLC analysis was performed on a Beckman analytical HPLC.

[1] = Tissue distribution (liver, kidney, lung) after a single IV injection; assay type: in vivo, BALB/C mice; settings: for Tmax / concentration at 24 h: female, BALB/C, mouse; for concentration at 24 h: experiment endpoint (24 h), read-out: concentration remaining in the liver at the experiment endpoint; for AUC (AUC0–24h) kidney / C max kidney / AUC (AUC0–24h) liver / C max liver / AUC (AUC0–24h) lung / C max lung: 7.5 mg/kg (1), 5 mg/kg (2); for concentration in the lung maintained over the entire time course: lowest level over 24 h
Description: (§1) Pyrrole–imidazole polyamide pharmacokinetic studies were performed in 10- to 12-week-old female BALB/C mice (Charles River). Polyamides were solubilized in PBS (1) or PBS/DMSO (2) and administered via intravenous (IV) tail vein injection at concentrations of 7.5 and 5 mg/kg, respectively. For each experiment, groups of 3 animals were euthanized at 0.083, 0.25, 0.5, 1, 2, 4, 8, and 24 h after injection. Animals designated for the 4, 8, and 24 h time points were housed in metabolic cages for collection of urine and feces as described below. All animals used in the pharmacokinetic experiments were performed under an approved protocol at the City of Hope.
Distribution of polyamides 1 and 2 was determined in the liver, kidneys, and lungs. The organs were harvested post-euthanasia and prepared via similar processes. A piece of the mouse organ was weighed and mixed with distilled water (3 μL/mg tissue). The tissue was then homogenized by pulsing three times on a TissueLyser for 2 min each at 30 Hz. Next, 30 μL of the tissue homogenate was mixed with 20 μL of 50 % MeOH and 50 % aqueous 1 % HOAc. The mixture was then vortex mixed with 0.12 mL 0.5 % HOAc in MeOH/ACN (2:8) and 20 μL of 6.0 μg/mL INS in MeOH/1 % aqueous HOAc (1:1) for 10 min and centrifuged at the highest setting for an additional 10 min. Samples treated with polyamide 1 were then diluted with 50 % MeOH/ACN (4:6) and 50 % aqueous 1 % HOAc. Samples treated with polyamide 2 were diluted with 50 % MeOH/ACN (4:6) and 50 % aqueous 3 % FA.
Plasma pharmacokinetic parameters were derived from polyamide concentration profiles using both non-compartmental and compartmental methods. Non-compartmental analysis was performed according to statistical moment theory and the rule of linear trapezoids, while compartmental analysis was performed in ADAPT II [24]. Pharmacokinetic parameters estimated from the non-compartmental analysis include the maximum concentration (C max), the terminal elimination half-life (t 1/2), the mean residence time (MRT), the area under the concentration curve (AUC0–24h), the AUC extrapolated to infinity (AUC0–∞), and the clearance (CL). Additional plasma pharmacokinetic parameters determined from the compartmental analysis include the alpha and beta half-lives (t 1/2) and the apparent volume of distribution (V d). Tissue pharmacokinetic parameters were determined non-compartmentally and included the C max and AUC0–24h. Urinary and fecal excretion data were expressed as the cumulative percentage of the administered dose.

[2] = Urinary and fecal excretion after a single IV injection; assay type: in vivo, BALB/C mice
Description: as §1
Urine and fecal samples were collected using metabolic cages (Ancare, Techniplast Metabolic Rack, 12 cages by Nalgene). Urine samples were collected at 3 time points over 24 h, and fecal samples were collected at 8 and 24 h time points. […]
Plasma pharmacokinetic parameters were derived from polyamide concentration profiles using both non-compartmental and compartmental methods. […] Additional plasma pharmacokinetic parameters determined from the compartmental analysis include the alpha and beta half-lives (t 1/2) and the apparent volume of distribution (V d). […] Urinary and fecal excretion data were expressed as the cumulative percentage of the administered dose.

[3] = test system: androgen receptor (AR) signaling; PSA mRNA in LNCaP prostate cancer cells; settings: cited from earlier work

Tmax ([1]; kidney, single IV, read-out: time of maximum concentration in kidney postinjection (converted)) [min]	Tmax ([1]; liver, single IV, read-out: time of maximum concentration in liver postinjection (converted)) [min]	Tmax ([1]; lung, single IV, read-out: time of peak concentration in lung following injection (converted)) [min]	cumulative urinary excretion ([2]; nearly complete by 4 h, single IV 7.5 mg/kg)	SMILES	stability at pH 2.5, 4, 7, and 10 (pH stability analysis)	concentration at 24 h ([1]; liver, single IV) [ng/g]	AUC (AUC0–24h) kidney ([1]; kidney, single IV) [µg·h/g]	C max kidney ([1]; kidney, single IV) [µg/g]	AUC (AUC0–24h) liver ([1]; liver, single IV) [µg·h/g]	C max liver ([1]; liver, single IV) [µg/g]	concentration in the lung maintained over the entire time course ([1]; lung, single IV)	AUC (AUC0–24h) lung ([1]; lung, single IV) [µg·h/g]	C max lung ([1]; lung, single IV) [µg/g]	most active concentration for inhibition of DHT-induced genes ([3]; LNCaP cells co-treated with DHT) [µg/mL]	time of maximum concentration in kidney postinjection ([1]; kidney, single IV) [min]	time of maximum concentration in liver postinjection ([1]; liver, single IV) [min]	lung C max of polyamide 2 relative to compound 1 ([1]; lung, initial distribution)	time of peak concentration in lung following injection ([1]; lung, single IV) [min]	cumulative urinary excretion at 24 h ([2]; 24 h, single IV 5 mg/kg)	activity relative to polyamide 1 (AR-driven gene / PSA mRNA downregulation) ([3]; cell culture)
5	5	15	5.7 ± 2.9 % of the administered dose	CN(CCCNC(=O)c1cccc(C(=O)O)c1)CCCNC(=O)c1cc(NC(=O)c2cc(NC(=O)c3cc(NC(=O)c4nc(NC(=O)[C@H](N)CCNC(=O)c5cc(NC(=O)c6cc(NC(=O)c7cc(NC(=O)c8nccn8C)cn7C)cn6C)cn5C)cn4C)cn3C)cn2C)cn1C [Polyamide 1]	did not display significant signs of degradation at any pH	4800 ± 300	299.2	27.0 ± 2.9	157.7	11.7 ± 1.3	above 2.8 ± 0.2 μg/g	130.6	16.4 ± 1.4	7.4	–	–	–	–	–	–
–	–	–	–	CC(=O)N[C@@H](CNC(=O)c1cc(NC(=O)c2cc(NC(=O)c3cc(NC(=O)c4nccn4C)cn3C)cn2C)cn1C)CC(=O)Nc1cn(C)c(C(=O)Nc2cc(C(=O)Nc3cc(C(=O)Nc4cc(C(=O)NCCCN(C)CCCNC(=O)c5cccc(C(=O)O)c5)n(C)c4)n(C)c3)n(C)c2)n1 [Polyamide 2]	did not display significant signs of degradation at any pH	17400 ± 8100	424.7	35.1 ± 2.8	301.3	43.8 ± 0.7	> 21.8 ± 7.6 µg/g	523.5	256 ± 93.1	–	5	5	greater than 15 fold	15	46.0 ± 15.2 % of the administered dose	tenfold increase; also recorded: equivalent activity to 1 at tenfold less concentration
